# Measured values published in PubChem BioAssay (NCI).
# Where “and” joins values, the source holds several entries; their conditions need not be identical. Identical values can stand only once.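 Exposure lasted 48 hours, with cells grown in 96-well plates and compounds tested at five concentrations. Here, GI50 denotes the concentration required for 50% inhibition of growth. TGI marks complete inhibition of growth.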
# Legend:
# Assay in all cases: NCI tumour cell line growth inhibition, 48 h
# A498 renal = test system: A498 renal
# A549 NSCLC = test system: A549 NSCLC
# COLO 205 colon = test system: COLO 205 colon
# EKVX NSCLC = test system: EKVX NSCLC
# K-562 leukemia = test system: K-562 leukemia
# LOX IMVI melanoma = test system: LOX IMVI melanoma
# OVCAR-8 ovarian = test system: OVCAR-8 ovarian
# SK-MEL-2 melanoma = test system: SK-MEL-2 melanoma
# CAKI-1 renal = test system: CAKI-1 renal
# DU-145 prostate = test system: DU-145 prostate
SMILES,TGI (A498 renal) [µM],TGI (A549 NSCLC) [µM],TGI (COLO 205 colon) [µM],TGI (EKVX NSCLC) [µM],TGI (K-562 leukemia) [µM],TGI (LOX IMVI melanoma) [µM],TGI (OVCAR-8 ovarian) [µM],TGI (SK-MEL-2 melanoma) [µM],TGI (CAKI-1 renal) [µM],GI50 (A498 renal) [µM],GI50 (A549 NSCLC) [µM],GI50 (CAKI-1 renal) [µM],GI50 (COLO 205 colon) [µM],GI50 (EKVX NSCLC) [µM],GI50 (K-562 leukemia) [µM],GI50 (LOX IMVI melanoma) [µM],GI50 (OVCAR-8 ovarian) [µM],TGI (DU-145 prostate) [µM],GI50 (DU-145 prostate) [µM],GI50 (SK-MEL-2 melanoma)
CN(C)CCC(/C=C/c1ccccc1)=N\Nc1ccc(Cl)cc1,21.8,7.34,16.5,11.4,5.02,3.57,14,4.4,,,,,,,,,,,,
COc1ccc(C(=O)C/C(=N/NC(N)=S)C(=O)Nc2ccccc2)cc1,> 100,> 100,> 100,> 100,> 100,> 100,> 100,> 100,> 100,,,,,,,,,,,
C[CH2][Ge]([CH2]C)([CH2]C)[O]C(=O)C([O][Ge]([CH2]C)([CH2]C)[CH2]C)c1ccccc1 (stereo not drawn),67.5,56.4,55.7,75.1,46.1,24.5,97.9,,44.9,19.2,12.7,19.2,22.1,9.4,14.3,12,18.2,,,
CCP(C)(C)=O,> 100,> 100,> 100,> 100,> 100,> 100,> 100,> 100,> 100,,,,,,,,,,,
CC(C)(C)c1cc(-c2c3nc(c(-c4cc(C(C)(C)C)cc(C(C)(C)C)c4)c4ccc([nH]4)c(-c4cc(C(C)(C)C)cc(C(C)(C)C)c4)c4nc(c(-c5cc(C(C)(C)C)cc(C(C)(C)C)c5)c5ccc2[nH]5)C=C4)C=C3)cc(C(C)(C)C)c1,> 100,> 100,> 100,> 100,> 100,> 100,> 100,> 100,> 100,,,,,,,,,,,
Cc1ncc([N+](=O)[O-])n1CCNC(=O)Cn1ccnc1[N+](=O)[O-],> 100,> 100,> 100,,> 100,,> 100,> 100,> 100,,,,,,,,,> 100,,
CCOC(=O)C1=C(C)N(NC(=O)OC)C2(N)N(NC(=O)OC)C(C)=C(C(=O)OCC)C12C#N (stereo not drawn),> 100,> 100,,> 100,> 100,> 100,> 100,> 100,> 100,,,,,,,,,,,
Cc1ccccc1NC(=O)C(=O)CC(=O)C1CCOC1=O (stereo not drawn),> 100,> 100,> 100,> 100,> 100,> 100,> 100,> 100,> 100,,,,,,,,,,,
NC1=NCC(c2ccccn2)C1c1ccc(F)cc1 (stereo not drawn),> 100,> 100,> 100,> 100,> 100,> 100,> 100,> 100,> 100,,,,,,,,,,,
Cc1nc2ccccc2c(/C=C/c2ccccc2)c1C(=O)/C=C/c1ccc(Cl)cc1,,,,,4.87,2.49,,,,,,,,,0.868,1.23,,,,
CC1(C)Cc2nnsc2C2=C1C(=O)CCS2,,> 100,> 100,> 100,> 100,> 100,> 100,> 100,> 100,,,,,,,,,,,
C=C(CN(C)Cc1ccccc1)c1ccc(C(=O)Nc2ccccc2N)cc1,,19.1,17.6,37.9,> 50,3.69,14.4,40.5,14.8,,5.19,3.43,7.72,8.17,3.22,1.05,1.56,11.9,1.64,8.73 µM
CNC1=CC(=O)C2=C(C1=O)C1C3=C(C(=O)C(Br)=C(OC)C3=O)C2c2ccccc21 (stereo not drawn),,> 50,22,3.31,3.01,,> 50,14.1,4.83,,20.6,1.89,9.89,1.53,1.35,,3.87,20.8,5.9,3.03 µM
NC(=NCCO)c1ccc(N2CCCN(c3ccc(C(N)=NCCO)cc3)CC2)cc1,,> 100,> 100,,,> 100,> 100,,> 100,,98.3,> 100,> 100,,,> 100,> 100,,,
O=C([CH-]C(=O)c1ccccc1)c1ccccc1.[CH3-].[CH3-].[CH3-].[Sn+4],> 100,> 100,35.8,> 100,23.6,25.9,53.8,56.9,> 100,35.4,17.1,13.6,17.8,33.1,4.92,7.95,8.25,,,7.68 µM
CC(=O)Oc1ccccc1C(=O)NCCC[Se]C#N,4.08,3.6,29.9,,21.1,5.26,4.1,5.64,3.94,2.1,1.84,1.97,12.8,,3.46,1.51,1.95,3.17,1.72,2.55 µM
C/C(CC(=O)Nc1ccccc1)=N\NC(N)=S,,> 100,> 100,> 100,> 100,> 100,> 100,> 100,,,,,,,,,,,,
COc1ccc(/C(=C\c2cc(OC)c(OC)c(OC)c2)C(=O)O)cc1,53.3,> 100,35.2,> 100,> 100,> 100,> 100,,> 100,,,,,,,,,,,
Cc1cc(Cl)ccc1N1C(=O)C(=O)C(c2nc3ccccc3o2)C(=O)C1=O,> 100,> 100,> 100,> 100,,,> 100,> 100,> 100,,,,,,,,,,,

SMILES,TGI (A498 renal) [µM],TGI (A549 NSCLC) [µM],TGI (COLO 205 colon) [µM],TGI (EKVX NSCLC) [µM],TGI (K-562 leukemia) [µM],TGI (LOX IMVI melanoma) [µM],TGI (OVCAR-8 ovarian) [µM],TGI (SK-MEL-2 melanoma) [µM],TGI (CAKI-1 renal) [µM],GI50 (A498 renal) [µM],GI50 (A549 NSCLC) [µM],GI50 (CAKI-1 renal) [µM],GI50 (COLO 205 colon) [µM],GI50 (EKVX NSCLC) [µM],GI50 (K-562 leukemia) [µM],GI50 (LOX IMVI melanoma) [µM],GI50 (OVCAR-8 ovarian) [µM],TGI (DU-145 prostate) [µM],GI50 (DU-145 prostate) [µM],GI50 (SK-MEL-2 melanoma)
O=C1[C@@H]2C(c3ccncc3)=NO[C@@H]2C(=O)N1c1ccc(Cc2ccc(N3C(=O)[C@H]4C(c5ccncc5)=NO[C@H]4C3=O)cc2)cc1,> 100,> 100,> 100,> 100,> 100,> 100,> 100,> 100,> 100,,,,,,,,,,,
N=C1N=C(N)S/C1=C\c1ccc2ncccc2c1,> 25,> 25,> 25,,> 25,> 25,> 25,> 25,> 25,13.7,> 25,> 25,> 25,,> 25,> 25,> 25,> 25,> 25,> 25 µM
CC(=O)OCC1OC(n2c(=S)n(-c3ccccc3)c(=O)c3cc(Br)ccc32)C(OC(C)=O)C(OC(C)=O)C1OC(C)=O (stereo not drawn),> 100,> 100,> 100,> 100,> 100,> 100,> 100,> 100,> 100,,,,,,,,,,,47 µM and > 100 µM
O=C(Nc1ccccc1[N+](=O)[O-])C(=O)C(C(=O)c1ccccc1-c1ccccc1)C1OC(=O)c2ccccc21 (stereo not drawn),37.8,72.6,32.6,51,60.6,36,44.1,65.2,> 100,,,,,,,,,,,
C[n+]1cc2cc3c(cc2c2ccccc21)OCO3,8.57,14.4,24,,> 100,53.8,30.5,11.3,> 100,1.05,2.41,46.4,4.48,,7.24,9.11,3.04,25.9,4.49,3.51 µM
C=CCN(N=O)C(=O)N(CCCCC(NC(C)=O)C(=O)NCc1ccccc1)Cc1ccccc1 (stereo not drawn),> 100,> 100,51.7,> 100,> 100,55.3,> 100,> 100,> 100,,,,,,,,,,,
COC(=O)[C@@H]1[C@H](O)[C@H](C)[C@H](O)[C@H](C)/C=C\C=C(C)C(=O)Nc2c(C)c(OC(C)=O)c3c(c2O)C(=O)C(C)=C2OCOC(=C23)C(C)=C[C@@](C)(O)[C@H](O)[C@@H](C)[C@H]1OC(C)=O,,,,> 100,> 100,> 100,> 100,,,,,,,,,,,> 100,,
CC1NCCc2c1[nH]c1cc(O)ccc21 (stereo not drawn),> 100,> 100,> 100,> 100,> 100,> 100,> 100,> 100,> 100,,,,,,,,,,,
O=C(Nc1nc(-c2ccccc2)cs1)c1cc(O)c(O)c(O)c1,28.2,51.4,30.1,,> 100,32.1,> 100,,16.6,5.41,5.62,1.42,10.8,,2.72,3.62,3.38,> 100,6.41,
COc1cc2oc(-c3cccc(C(=O)Nc4ccc(C)cc4)c3)cc(=O)c2c(OC)c1OC,,> 100,2.6,,> 100,3.97,> 100,9.55,3.22,,3.86,0.315,1.05,,3.4,0.32,2.9,> 100,3.21,3.33 µM
Cc1nnc2n1N=C(c1ccc(-c3ccc([N+](=O)[O-])cc3)o1)CS2,,> 100,> 100,,> 100,> 100,> 100,> 100,> 100,,,,,,,,,,,
Cn1ccc2c3c(=O)cc[nH]c3ccc21,,> 100,> 100,> 100,> 100,> 100,> 100,> 100,95.1,,> 100,32.4,> 100,> 100,> 100,> 100,> 100,> 100,> 100,> 100 µM
CN(C)CCC(=O)N1CCc2c([nH]c3ccccc23)C1c1cccnc1 (stereo not drawn),> 100,> 100,,> 100,> 100,> 100,> 100,,> 100,,,,,,,,,,,
OCCSCC/C(=N\N=C(/CCSCCO)c1ccccc1)c1ccccc1,,> 100,> 100,> 100,> 100,> 100,> 100,> 100,> 100,,,,,,,,,,,
Cc1ccc(S(=O)(=O)N[C@@H](Cc2ccccc2)C(=O)CCl)cc1,,> 100,52.3,36,31.4,10.4,> 100,35.8,34.7,,42.6,16.7,19.9,,4.26,2.31,17.8,26.1,11.1,15 µM
C/C=C/C=C/CCCCCCCCCCCCC[C@]1(OC)C=CC(CC(=O)OC)OO1 (stereo partly drawn),,> 100,36.1,57.6,52.1,37.1,37.7,69.5,31.1,,35,17.1,18.9,26.3,,19.3,17.6,,,
Cc1cccc2cc3cccc(C(=O)NCCN(C)C)c3nc12,0.192,,1.75,1.69,11.3,0.568,5.58,1.85,0.327,,,,,,,,,,,
Cc1cc(Cl)cc2c1NC(=O)C2(O)CC(=O)c1ccc(F)cc1 (stereo not drawn),,81.1,> 100,> 100,,> 100,> 100,> 100,> 100,,,,,,,,,,,
O=C1c2ccccc2C(=O)c2sc(Nc3ccc(Cl)cc3)nc21,29.7,24.6,17.7,17.9,5.12,2.91,4.49,8.94,5.86,,,,,,,,,,,
